SMILES strings stand for the structures. Active and inactive are the calls of the source. No cut-off for these calls is given here.

Data set [1] deals with Mus musculus. Nature of the data set: Biodistribution in human MIAPaCa2 cells xenografted Swiss mouse tumor at 3 mg/kg, ip dosed three times per week measured 48 hrs after last 4 cycles of compound dosing. The arrangement: dose 3 mg/kg, route intraperitoneal. The data set is classed as ADME, organism-based, Neoplasm, MIA PaCa-2. The conditions noted are these: in vivo.
A further data set concerns Pancreas. Nature of the data set: Biodistribution in human MIAPaCa2 cells xenografted Swiss mouse Pancreas at 3 mg/kg, ip dosed three times per week measured 48 hrs after last 4 cycles of compound dosing. The conditions noted are these: in vivo. The arrangement: dose 3 mg/kg, route intraperitoneal. The data set is classed as ADME, organism-based, MIA PaCa-2.
Data set [2] deals with Nucleic Acid. Nature of the data set: Stabilization of HSP90a DNA G-quadruplex assessed as change in melting temperature at 0.5 uM by FRET. The data set is classed as nucleic-acid assay.
Data set [3] relates to Nucleic Acid. Nature of the data set: Stabilization of HSP90b DNA G-quadruplex assessed as change in melting temperature at 0.5 uM by FRET. The data set is classed as nucleic-acid assay.
For data set [4], the system named is Nucleic Acid. Put plainly: Stabilization of HSP90a DNA G-quadruplex assessed as change in melting temperature at 1 uM by FRET. The data set is classed as nucleic-acid assay.
Data set [5] relates to Nucleic Acid. Put plainly: Stabilization of HSP90b DNA G-quadruplex assessed as change in melting temperature at 1 uM by FRET. The data set is classed as nucleic-acid assay.
The subject of data set [6] is Mus musculus. Put plainly: Inhibition of telomerase activity in human MIAPaCa2 cells xenografted Swiss mouse at 3 mg/kg, ip dosed for 25 days by TRAP-LIG assay relative to untreated control. The data set is classed as functional. Particulars: MIA PaCa-2, ip, 600 h, route intraperitoneal.
Data set [7] has as its system Mus musculus. Nature of the data set: Reduction in HSP90 protein expression in human MIAPaCa2 cells xenografted Swiss mouse tumor at 3 mg/kg, ip dosed three times per week by immunoblot. The data set is classed as functional, MIA PaCa-2. The arrangement: scale not given: the % may be the effect or the level left. Particulars: route intraperitoneal. (In general: Xenograft models place foreign cells or tissue in a host animal.)

In data set [8] the test system is Mus musculus. Put plainly: Reduction in hTERT protein expression in human MIAPaCa2 cells xenografted Swiss mouse tumor at 3 mg/kg, ip dosed three times per week by immunoblot. The data set is classed as functional, MIA PaCa-2. The arrangement: scale not given: the % may be the effect or the level left. The conditions noted are these: route intraperitoneal.
Data set [9] relates to Mus musculus. Put plainly: Reduction in k-Ras protein expression in human MIAPaCa2 cells xenografted Swiss mouse tumor at 3 mg/kg, ip dosed three times per week by immunoblot. The data set is classed as functional, organism-based. The arrangement: dose 3 mg/kg. The conditions noted are these: MIA PaCa-2.
The subject of data set [10] is Mus musculus. Nature of the data set: Reduction in Bcl-2 protein expression in human MIAPaCa2 cells xenografted Swiss mouse tumor at 3 mg/kg, ip dosed three times per week by immunoblot. The arrangement: scale not given: the % may be the effect or the level left. Particulars: route intraperitoneal. The data set is classed as functional, MIA PaCa-2.
Data set [11] has as its system MIA PaCa-2. Nature of the data set: Effect on PARP protein expression human MIAPaCa2 cells at 0.1 uM to 1 uM incubated for 8 hrs by Western blot. The data set is classed as functional, cell-based. Background: In western blotting, separated proteins are transferred to a membrane and probed.
The test system of data set [12] is MIA PaCa-2. Nature of the data set: Effect on gammaH2AX protein expression human MIAPaCa2 cells at 0.1 uM to 1 uM incubated for 8 hrs by Western blot. The data set is classed as functional, cell-based.
The test system of data set [13] is Mus musculus. Put plainly: Toxicity in human MIAPaCa2 cells xenografted in Swiss mouse assessed as incidence of weight loss at 3 mg/kg, ip dosed three times per week. The data set is classed as organism-based, MIA PaCa-2. The arrangement: dose 3 mg/kg, route intraperitoneal. The conditions noted are these: in vivo.
A short description of data set [14]: Toxicity in human MIAPaCa2 cells xenografted in Swiss mouse assessed as maximum tolerated dosed intraperitoneally three times per week. The data set is classed as organism-based, MIA PaCa-2. Particulars: in vivo, ip.
The subject of data set [15] is MIA PaCa-2. Put plainly: Antitumor activity against human MIAPaCa2 cells xenografted in Swiss mouse assessed as reduction tumor volume at 3 mg/kg, ip dosed three times per week. Particulars: route intraperitoneal. The data set is classed as functional. The arrangement: scale not given: the % may be the effect or the level left.

`CN1CCN(CCCNc2cc3c4c(c(NCCCN5CCN(C)CC5)cc5c4c2C(=O)N(CCCN2CCN(C)CC2)C5=O)C(=O)N(CCCN2CCN(C)CC2)C3=O)CC1`: the Drug uptake result in the data set on Mus musculus [1] and with Pancreas was “Active” throughout. For the same compound, the ΔTm with Nucleic Acid [2] worked out at 34.9 °C; in the data set on Nucleic Acid [3], 31 °C; with Nucleic Acid [4] it was 36.3 °C; in the data set on Nucleic Acid [5], 32 °C. In the data set on Mus musculus [6], this compound returned an inhibition in vivo at 3 mg/kg of 50%. Further, the Activity is 30% with Mus musculus [7]; 30% with Mus musculus [8]; 10% with Mus musculus [10]; “Non-toxic” in the data set on Mus musculus [13]; 50% in the data set with MIA PaCa-2 [15]. Also, the result in the data set with Mus musculus [9], in the data set on MIA PaCa-2 [11] and in the data set on MIA PaCa-2 [12] was inactive. In data set [14], the MTD was found to be 15 mg/kg.

By ΔTm is commonly meant the change in melting temperature against a reference sample. Usually inhibition in vivo stands for the share of the control response that was lost under treatment. For orientation: MTD means the highest dose tested that stayed within the study's limit of toxicity.

The values above are taken from ChEMBL document CHEMBL2157890, “Targeting pancreatic cancer with a G-quadruplex ligand” (Bioorg Med Chem, 2011).
